In patent US7196077B2, “Tachykinin antagonists” (Glaxo Group Limited, priority 2001, dated 2007):
Structures can show the parent of a compound that is named as a salt.

Target: T1, recombinant human NK1 receptors (Homo sapiens, UniProt P25103)
T1 construct: expressed in transfected cells; host or cells: Chinese Hamster Ovary (CHO) cells, membrane preparation
Experiment: NK1-receptor binding affinity, displacement of [3H]-substance P
Conditions: negative logarithm of Ki; displacement of [3H]-substance P from recombinant human NK1 receptors in CHO cell membranes; average of at least two determinations
Procedure: NK1-receptor binding affinity has been determined in vitro by the compounds' ability to displace [3H]-substance P (SP) from recombinant human NK1 receptors expressed in Chinese Hamster Ovary (CHO) cell membranes.
CHO cell membranes were prepared by using a modification of the method described by Dam T and Quirion R (Peptides, 7: 855–864, 1986). Thus ligand binding was performed in 0.4 mL of 50 mM HEPES, pH 7.4, containing 3 mM MnCl2, 0.02% BSA, 0.5 nM [^3H]-Substance P (30÷56 Ci/mmol, Amersham), a final membrane concentration of 25 μg of protein/ml, and the test compounds. The incubation proceeded at room temperature for 40 min. Non-specific binding was determined using excess of Substance P (1 μM) and represents about 6% of the total binding.
The affinity of the compound of the invention for NK1 receptor was determined using the NK1-receptor binding affinity method measuring in vitro by the compounds' ability to displace [3H]-substance P (SP) from recombinant human NK1 receptors expressed in Chinese Hamster Ovary (CHO) cell membranes. The affinity values are expressed as negative logarithm of the inhibition constant (Ki) of displacer ligands (pKi).

T1 sequence (P25103 whole entry): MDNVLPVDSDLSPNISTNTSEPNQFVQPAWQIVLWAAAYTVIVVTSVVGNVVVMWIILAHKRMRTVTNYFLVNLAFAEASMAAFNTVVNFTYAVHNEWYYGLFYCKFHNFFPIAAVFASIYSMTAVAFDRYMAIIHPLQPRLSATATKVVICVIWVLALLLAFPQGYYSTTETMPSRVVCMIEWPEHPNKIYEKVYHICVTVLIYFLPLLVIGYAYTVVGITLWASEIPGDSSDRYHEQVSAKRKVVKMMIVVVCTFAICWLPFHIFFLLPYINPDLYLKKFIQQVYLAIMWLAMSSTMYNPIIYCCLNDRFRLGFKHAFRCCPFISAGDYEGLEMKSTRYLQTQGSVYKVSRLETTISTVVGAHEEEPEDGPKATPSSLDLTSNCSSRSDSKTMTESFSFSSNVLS

Ki [nM]	Structure (SMILES)
0.0347	Cc1cc(F)ccc1[C@H]1CNCCCN1C(=O)N(C)Cc1cc(C(F)(F)F)cc(C(F)(F)F)c1 [Example 1, 2-(S)-(4-Fluoro-2-methyl-phenyl)-[1,4]-diazepane-1-carboxylic acid, (3,5-bis-trifluoromethyl-benzyl)-methylamide hydrochloride]
0.295	Cc1cc(F)ccc1[C@H]1CCN(C)CCN1C(=O)N(C)Cc1cc(Cl)cc(Cl)c1 [Example 13, 7-(R)-(4-Fluoro-2-methyl-phenyl)-4-methyl-[1,4]-diazepane-1-carboxylic acid, (3,5-dichloro-benzyl)-methylamide hydrochloride]
0.0977	Cc1cc(F)ccc1[C@H]1CCNCCN1C(=O)N(C)Cc1cc(Cl)cc(Cl)c1 [Example 6, 7-(R)-(4-Fluoro-2-methyl-phenyl)-[1,4]-diazepane-1-carboxylic acid, (3,5-dichloro-benzyl)-methylamide hydrochloride]
0.0479	Cc1cc(F)ccc1[C@H]1CNCCCN1C(=O)N(C)[C@@H](C)c1cc(C(F)(F)F)cc(C(F)(F)F)c1 [Example 7, 2-(S)-(4-Fluoro-2-methyl-phenyl)-[1,4]-diazepane-1-carboxylic acid, [1-(S)-(3,5-bis-trifluoromethyl-phenyl)-ethyl]-methylamide hydrochloride]
0.0309	Cc1cc(F)ccc1[C@H]1CCN(C)CCN1C(=O)N(C)[C@H](C)c1cc(C(F)(F)F)cc(C(F)(F)F)c1 [Example 15, 7-(R)-(4-Fluoro-2-methyl-phenyl)-4-methyl-[1,4]-diazepane-1-carboxylic acid, [1-(R)-(3,5-bis-trifluoromethyl-phenyl)-ethyl]-methylamide hydrochloride.]
0.0661	Cc1cc(F)ccc1[C@H]1CNCCCN1C(=O)N(C)Cc1cc(Cl)cc(Cl)c1 [Example 5, 2-(S)-(4-Fluoro-2-methyl-phenyl)-[1,4]-diazepane-1-carboxylic acid, (3,5-dichloro-benzyl)-methylamide hydrochloride]
0.0245	Cc1cc(F)ccc1[C@H]1CNCCCN1C(=O)N(C)[C@H](C)c1cc(C(F)(F)F)cc(C(F)(F)F)c1 [Example 3, 2-(S)-(4-Fluoro-2-methyl-phenyl)-[1,4]-diazepane-1-carboxylic acid, [1-(R)-(3,5-bis-trifluoromethyl-phenyl)-ethyl]-methylamide hydrochloride]
0.0562	Cc1cc(F)ccc1[C@H]1CCN(C)CCN1C(=O)N(C)Cc1cc(C(F)(F)F)cc(C(F)(F)F)c1 [Example 14, 7-(R)-(4-Fluoro-2-methyl-phenyl)-4-methyl-[1,4]-diazepane-1-carboxylic acid, (3,5-bis-trifluoromethyl-benzyl)-methylamide hydrochloride]
0.0724	Cc1cc(F)ccc1[C@H]1CCNCCN1C(=O)N(C)Cc1cc(C(F)(F)F)cc(C(F)(F)F)c1 [Example 2, 7-(R)-(4-Fluoro-2-methyl-phenyl)-[1,4]-diazepane-1-carboxylic acid, (3,5-bis-trifluoromethyl-benzyl)-methylamide hydrochloride]
0.0195	Cc1cc(F)ccc1[C@H]1CCNCCN1C(=O)N(C)[C@H](C)c1cc(C(F)(F)F)cc(C(F)(F)F)c1 [Example 4, 7-(R)-(4-Fluoro-2-methyl-phenyl)-[1,4]-diazepane-1-carboxylic acid, [1-(R)-(3,5-bis-trifluoromethyl-phenyl)-ethyl]-methylamide hydrochloride]
0.0457	Cc1cc(F)ccc1[C@H]1CCNCCN1C(=O)N(C)[C@@H](C)c1cc(C(F)(F)F)cc(C(F)(F)F)c1 [Example 8, 7-(R)-(4-Fluoro-2-methyl-phenyl)-[1,4]-diazepane-1-carboxylic acid, [1-(S)-(3,5-bis-trifluoromethyl-phenyl)-ethyl]-methylamide hydrochloride]
0.501	CN(Cc1cc(C(F)(F)F)cc(C(F)(F)F)c1)C(=O)N1CCCNC[C@@H]1c1ccc(F)cc1 [Example 12a, 2-(S)-(4-Fluoro-phenyl)-[1,4]-diazepane-1-carboxylic acid, (3,5bis-trifluoromethyl-benzyl)-methylamide hydrochloride]
